These results are taken from ChEMBL document CHEMBL1129323, “Comparative molecular moment analysis (CoMMA): 3D-QSAR without molecular superposition” (J Med Chem, 1996).

Series [1] in a line: Hammett constant was evaluated. In kind it is ADME.
Series [2] addresses T1, Sex hormone-binding globulin (Homo sapiens) (UniProt P04278).
T1 sequence (whole entry): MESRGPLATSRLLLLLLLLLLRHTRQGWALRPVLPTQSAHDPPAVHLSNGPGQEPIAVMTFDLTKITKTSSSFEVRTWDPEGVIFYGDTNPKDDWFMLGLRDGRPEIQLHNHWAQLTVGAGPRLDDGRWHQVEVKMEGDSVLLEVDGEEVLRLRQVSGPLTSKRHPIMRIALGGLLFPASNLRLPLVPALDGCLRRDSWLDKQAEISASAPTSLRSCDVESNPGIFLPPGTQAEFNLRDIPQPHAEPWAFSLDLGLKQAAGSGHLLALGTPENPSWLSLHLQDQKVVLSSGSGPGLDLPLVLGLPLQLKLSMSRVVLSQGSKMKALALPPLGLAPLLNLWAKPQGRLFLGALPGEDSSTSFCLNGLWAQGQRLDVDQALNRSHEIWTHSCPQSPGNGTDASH
Description: Binding affinity towards testosterone binding globulin is expressed as log(1/k).

Series [3] concerns the target T2, Corticosteroid-binding globulin (Homo sapiens) (UniProt P08185).
T2 sequence (whole entry): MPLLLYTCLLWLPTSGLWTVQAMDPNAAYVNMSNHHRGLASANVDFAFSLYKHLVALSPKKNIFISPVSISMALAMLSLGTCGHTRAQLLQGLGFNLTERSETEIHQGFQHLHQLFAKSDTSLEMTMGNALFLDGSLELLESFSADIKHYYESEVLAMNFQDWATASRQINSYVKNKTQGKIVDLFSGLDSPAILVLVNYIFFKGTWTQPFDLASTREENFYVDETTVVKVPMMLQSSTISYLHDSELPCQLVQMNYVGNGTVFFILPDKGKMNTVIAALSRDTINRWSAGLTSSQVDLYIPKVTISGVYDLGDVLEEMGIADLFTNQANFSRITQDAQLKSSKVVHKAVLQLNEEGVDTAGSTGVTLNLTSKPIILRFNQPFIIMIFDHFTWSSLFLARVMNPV
Description: Binding affinity for corticosteroid binding globulin is expressed as log(1/k)

In series [1], `O=C(O)c1ccc(I)cc1` came in with a Hammett constant of 0.18.
For the molecule `C[C@]12CCC(=O)C=C1CC[C@@H]1[C@@H]2[C@@H](O)C[C@]2(C=O)[C@@H](C(=O)CO)CC[C@@H]12`, the Log 1/K in series [2] stood at 5.32; in series [3] it was 6.28.
The molecule `O=C(O)c1cccc(SC(F)(F)F)c1` came in with a Hammett constant in series [1] of 0.4.
`N#Cc1cccc(C(=O)O)c1`: the Hammett constant in series [1] turned out to be 0.56.
In series [1], `O=C(O)c1cccc(I)c1` registered a Hammett constant of 0.35.
As for `CC(=O)OCC(=O)[C@@]1(O)CCC2C3CCC4=CC(=O)CC[C@]4(C)C3C(O)C[C@@]21C` (some centres not stated), the Log 1/K in series [3] was determined as 7.55.
Regarding `CS(=O)(=O)c1cccc(C(=O)O)c1`, the Hammett constant in series [1] is reported as 0.6.
In series [1], `O=C(O)c1cccc(F)c1` yielded a Hammett constant of 0.34.
Still for that read-out and setting: next, `O=C(O)c1ccc(O)cc1` [PARABEN]: -0.37.
`O=C(O)c1cccc(Br)c1` had a Hammett constant in series [1] of 0.39.
In the case of `CC(=O)[C@@]1(O)CC[C@H]2[C@@H]3CCC4=CC(=O)CC[C@]4(C)[C@H]3CC[C@@]21C`, the Log 1/K in series [2] came out at 7; in series [3], 7.74.
In series [1], `CS(=O)(=O)c1ccc(C(=O)O)cc1` returned a Hammett constant of 0.72.
With `O=C(O)c1ccc(C(F)(F)C(F)(F)F)cc1`, the Hammett constant in series [1] is on record as 0.52.
`O=C(O)c1ccc([N+](=O)[O-])cc1` [4-NITROBENZOIC ACID] returned a Hammett constant in series [1] of 0.78.
For `CC(=O)[C@H]1CC[C@H]2[C@@H]3CC=C4C[C@@H](O)CC[C@]4(C)[C@H]3CC[C@]12C`, the results for the Log 1/K in series [2] and in series [3] were 7.15 and 5.25, respectively.
With `Cc1ccc(C(=O)O)cc1` [4-METHYLBENZOIC ACID], the Hammett constant in series [1] was -0.17.
Same read-out and setting: next, `Nc1ccc(C(=O)O)cc1` [AMINOBENZOIC ACID]: -0.66.
In series [1], `Cc1cccc(C(=O)O)c1` returned a Hammett constant of -0.07.
On to `C[C@@H]1C[C@@]2(C)C(=CC1=O)CC[C@H]1[C@@H]3CC[C@](O)(C(=O)CO)[C@@]3(C)C[C@H](O)[C@@]12F`, for which the Log 1/K in series [3] was 5.8.
In series [1], `O=C(O)c1cccc(O)c1` [3-HYDROXYBENZOIC ACID] gave a Hammett constant of 0.12.
Regarding `CC(C)(C)c1cccc(C(=O)O)c1`, the Hammett constant in series [1] is listed as -0.1.
`N#Cc1ccc(C(=O)O)cc1`: in series [1], the Hammett constant is reported as 0.66.
In series [1], `COc1ccc(C(=O)O)cc1` [p-ANISIC ACID] gave a Hammett constant of -0.27.
Consider `C[C@]12CC[C@H](O)C[C@@H]1CC[C@@H]1[C@@H]2CC[C@]2(C)[C@@H](O)CC[C@@H]12`, for which the Log 1/K in series [2] amounted to 9.11; in series [3] it was 5.
Molecule `COc1cccc(C(=O)O)c1` yielded a Hammett constant in series [1] of 0.12.
Still for that read-out and setting: next, `O=C(O)c1ccc(CI)cc1`: 0.11; `O=C(O)c1cccc(Cl)c1`: 0.37.
On the same count and under the same terms, next, `O=C(O)c1ccc(C(F)(F)F)cc1`: 0.54.
`O=C(O)c1cccc(S(=O)(=O)C(F)(F)F)c1`: the Hammett constant in series [1] is reported as 0.79.
The molecule `O=C(O)c1ccc(Br)cc1` registered a Hammett constant in series [1] of 0.23.
In series [1], `O=C(O)c1ccc(SC(F)(F)F)cc1` came in with a Hammett constant of 0.5.
As to `CC(=O)[C@H]1CC[C@H]2[C@@H]3CCC4=CC(=O)CC[C@@H]4[C@H]3CC[C@]12C`, in series [3], the Log 1/K was 6.82.
Molecule `O=C(O)c1cccc(CCl)c1` came in with a Hammett constant in series [1] of 0.11.
On to `C[C@]12CC[C@H]3[C@@H](CCC4=CC(=O)CC[C@@H]43)[C@@H]1CC[C@@H]2O`, for which, in series [3], the Log 1/K stood at 6.14.
`CC(=O)[C@@]1(O)[C@H](O)C[C@H]2[C@@H]3CCC4=CC(=O)CC[C@]4(C)[C@H]3CC[C@@]21C` registered a Log 1/K in series [3] of 6.25.
Molecule `CCc1ccc(C(=O)O)cc1` displayed a Hammett constant in series [1] of -0.15.
On the same count and under the same terms, to `O=C(O)c1ccc(OC(F)(F)F)cc1` belongs 0.35.
Turning to `CC(=O)[C@@]1(C)CCC2C3CCC4=CC(=O)CC[C@]4(C)C3CC[C@@]21C` (some centres not stated), the Log 1/K in series [3] turned out to be 7.12.
In series [1], `O=C(O)c1cccc(CBr)c1` showed a Hammett constant of 0.12.
`C[C@]12CCC(=O)C=C1CC[C@@H]1[C@@H]2C(=O)C[C@@]2(C)[C@H]1CC[C@]2(O)C(=O)CO`: the Log 1/K was 6.43 in series [2] and 6.89 in series [3].
In series [1], `O=C(O)c1ccccc1` [BENZOIC ACID] had a Hammett constant of 0.
`O=C(O)c1ccc(S(=O)(=O)F)cc1`: the Hammett constant in series [1] came out at 0.91.
Molecule `O=C(O)c1ccc(F)cc1` displayed a Hammett constant in series [1] of 0.06.
For `CC(C)(C)c1ccc(C(=O)O)cc1`, in series [1], the Hammett constant is recorded as -0.2.
As to `O=C(O)c1cccc(S)c1`, in series [1], the Hammett constant is on record as 0.25.
As for `CC(=O)[C@H]1CC[C@H]2[C@@H]3CCC4=CC(=O)CC[C@]4(C)[C@H]3C(=O)C[C@]12C`, the Log 1/K in series [3] worked out at 6.78.
Take `C[C@]12C=CC(=O)C=C1CC[C@@H]1[C@@H]2[C@@H](O)C[C@@]2(C)[C@H]1CC[C@]2(O)C(=O)CO`: the Log 1/K in series [3] amounted to 7.51.
Take `C[C@]12CCC(=O)C=C1CC[C@@H]1[C@@H]2CC[C@@]2(C)[C@H]1CC[C@]2(O)C(=O)CO`: the Log 1/K in series [2] was 7.2; in series [3], 7.88.
In the same order, the values of `C[C@]12CCC(=O)C=C1CC[C@@H]1[C@@H]2[C@@H](O)C[C@@]2(C)[C@H]1CC[C@]2(O)C(=O)CO` are 6.2 and 7.88.
`O=C(O)c1cccc(C(F)(F)C(F)(F)F)c1` yielded a Hammett constant in series [1] of 0.47.
As for `CSc1ccc(C(=O)O)cc1`, in series [1], the Hammett constant was found to be 0.
`O=C(O)c1ccc(S(=O)(=O)C(F)(F)F)cc1`: in series [1], the Hammett constant was found to be 0.93.
Take `CSc1cccc(C(=O)O)c1`: the Hammett constant in series [1] came out at 0.15.
`O=C(O)c1ccc(S)cc1`: in series [1], the Hammett constant is 0.15.
As for `C[C@]12CC[C@H]3[C@@H](CCC4=CC(=O)CC[C@@]43C)[C@@H]1CC[C@@H]2O`, the results for the Log 1/K in series [2] and in series [3] were 9.2 and 6.72, respectively.
For the molecule `O=C(O)c1cccc([N+](=O)[O-])c1`, in series [1], the Hammett constant turned out to be 0.71.
Same read-out and setting: next, `O=C(O)c1ccc(CCl)cc1`: 0.12.
On to `O=C(O)c1cccc(OC(F)(F)F)c1`, for which, in series [1], the Hammett constant worked out at 0.38.
Consider `CC(=O)[C@H]1CC[C@H]2[C@@H]3CCC4=CC(=O)CC[C@]4(C)[C@H]3CC[C@]12C`, for which the values for the Log 1/K in series [2] and in series [3] were 6.94 and 7.38, respectively.
The molecule `O=C(O)c1cccc(C(F)(F)F)c1` yielded a Hammett constant in series [1] of 0.43.
For `CCc1cccc(C(=O)O)c1`, the Hammett constant in series [1] was -0.07.
Take `C[C@]12CC[C@H]3[C@@H](CCC4=CC(=O)CC[C@@]43C)[C@@H]1CC[C@@H]2C(=O)CO`: the Log 1/K turned out to be 7.38 in series [2] and 7.65 in series [3].
Turning to `O=C(O)c1cccc(S(=O)(=O)F)c1`, the Hammett constant in series [1] was found to be 0.8.
Consider `C[C@]12CC[C@@H]3c4ccc(O)cc4CC[C@H]3[C@@H]1C[C@@H](O)[C@@H]2O`, for which the values for the Log 1/K in series [2] and in series [3] were 6.63 and 5, respectively.
Consider `C[C@]12CCC(=O)C=C1CC[C@@H]1[C@@H]2CC[C@]2(C)C(=O)CC[C@@H]12`, for which the results for the Log 1/K in series [2] and in series [3] were 7.46 and 5.76, respectively.
For the molecule `Nc1cccc(C(=O)O)c1` [3-AMINOBENZOIC ACID], in series [1], the Hammett constant is listed as -0.16.
In series [1], `O=C(O)c1ccc(CBr)cc1` came in with a Hammett constant of 0.14.
Regarding `C[C@]12CC[C@H](O)CC1=CC[C@@H]1[C@@H]2CC[C@]2(C)C(=O)CC[C@@H]12`, the values for the Log 1/K in series [2] and in series [3] were 7.82 and 5, respectively.
`C[C@]12C[C@@H](O)[C@H]3[C@@H](CCC4=CC(=O)CC[C@@]43C)[C@@H]1CC[C@@H]2C(=O)CO` displayed a Log 1/K in series [3] of 7.2.
In the case of `C[C@]12C[C@H](O)[C@H]3[C@@H](CCC4=CC(=O)CC[C@@]43C)[C@@H]1CC[C@@H]2C(=O)CO`, the Log 1/K was 6.34 in series [2] and 7.88 in series [3].
With `CC(=O)[C@@]1(O)CC[C@H]2[C@@H]3CC=C4C[C@@H](O)CC[C@]4(C)[C@H]3CC[C@@]21C`, the Log 1/K turned out to be 6.36 in series [2] and 5 in series [3].
For `O=C(O)c1cccc(CI)c1`, in series [1], the Hammett constant is reported as 0.1.
